The conditions of the series: human.

Each structure is given as a SMILES string. Where two headings read alike, the source gives them in different places.

Experimental findings from patent US20160151275A1, “METHOD AND DEVICES FOR MANUFACTURING AND DELIVERING OF AEROSOLIZED FORMULATIONS” (priority 2014, published 2016) are described below.

`Cn1c(=O)c2c(ncn2C)n(C)c1=O` [caffeine]: the bioavailability was ~10%. Besides, the bioavailability (inhaled or intranasal) fell in the range of 80 to 90%.
